Measurements taken from the CheMixHub viscosity set.

Test: xn = mol fraction of the nth substance listed

CCCCOC(=O)c1ccccc1 + CCCCCCCCCC
101 kPa
Conditions	viscosity [mPa·s]
298.15 K, x2 = 0.0918	2.334
298.15 K, x2 = 0.1358	2.183
298.15 K, x2 = 0.1792	2.041
298.15 K, x2 = 0.2262	1.896
298.15 K, x2 = 0.2664	1.788
298.15 K, x2 = 0.3097	1.678
298.15 K, x2 = 0.3591	1.567
298.15 K, x2 = 0.4089	1.47
298.15 K, x2 = 0.4486	1.401
298.15 K, x2 = 0.4948	1.329
298.15 K, x2 = 0.5503	1.25
298.15 K, x2 = 0.5873	1.204
298.15 K, x2 = 0.6281	1.153
298.15 K, x2 = 0.6957	1.077
298.15 K, x2 = 0.741	1.032
298.15 K, x2 = 0.7899	0.988
298.15 K, x2 = 0.8403	0.946
298.15 K, x2 = 0.8939	0.908
298.15 K, x2 = 0.9566	0.87
308.15 K, x2 = 0.0669	1.981
308.15 K, x2 = 0.1091	1.855
308.15 K, x2 = 0.1542	1.738
308.15 K, x2 = 0.1965	1.637
308.15 K, x2 = 0.245	1.534
308.15 K, x2 = 0.2934	1.443
308.15 K, x2 = 0.3293	1.381
308.15 K, x2 = 0.3765	1.306
308.15 K, x2 = 0.4326	1.224
308.15 K, x2 = 0.4647	1.182
308.15 K, x2 = 0.5148	1.12
308.15 K, x2 = 0.563	1.063
308.15 K, x2 = 0.6162	1.008
308.15 K, x2 = 0.6547	0.972
308.15 K, x2 = 0.7081	0.924
308.15 K, x2 = 0.7512	0.891
308.15 K, x2 = 0.8136	0.846
308.15 K, x2 = 0.8573	0.818
308.15 K, x2 = 0.9215	0.783
318.15 K, x2 = 0.0724	1.636
318.15 K, x2 = 0.0793	1.618
318.15 K, x2 = 0.1214	1.527
318.15 K, x2 = 0.1698	1.43
318.15 K, x2 = 0.2143	1.349
318.15 K, x2 = 0.2625	1.268
318.15 K, x2 = 0.3071	1.201
318.15 K, x2 = 0.3576	1.129
318.15 K, x2 = 0.4024	1.073
318.15 K, x2 = 0.4543	1.013
318.15 K, x2 = 0.4998	0.966
318.15 K, x2 = 0.551	0.917
318.15 K, x2 = 0.5985	0.876
318.15 K, x2 = 0.6498	0.834
318.15 K, x2 = 0.6927	0.804
318.15 K, x2 = 0.7509	0.764
318.15 K, x2 = 0.8026	0.733
318.15 K, x2 = 0.901	0.682
318.15 K, x2 = 0.9265	0.673

CC(C)C=O + CCCCO
100 kPa
Conditions	viscosity [mPa·s]
294.4 K, x1 = 0.76	8.02
296.4 K, x1 = 0.6	13.17
296.9 K, x1 = 0.9	5.36
314.5 K, x1 = 0.6	8.56

CCNCC + CCCCOCCOCCO
viscosity [mPa·s], 100 kPa
Conditions	298.15 K	303.15 K	308.15 K
x2 = 0.05043	0.3695	0.3487	0.3286
x2 = 0.09991	0.457	0.4294	0.4036
x2 = 0.1494	0.5594	0.5411	0.4914
x2 = 0.2	0.699	0.6487	0.6022
x2 = 0.3	1.062	0.9662	0.8961
x2 = 0.4001	1.56	1.376	1.288
x2 = 0.5	2.156	1.896	1.722
x2 = 0.6	2.817	2.45	2.215
x2 = 0.6997	3.484	3.007	2.686
x2 = 0.7998	4.107	3.511	3.132
x2 = 0.9	4.667	3.966	3.532
x2 = 0.9491	4.904	4.167	3.705

CC1OC(C)OC(C)O1 (centres undefined) + CC1COC(=O)O1
viscosity [mPa·s], 101.3 kPa
Conditions	x1 = 0.091	x1 = 0.2019	x1 = 0.3007	x1 = 0.4055	x1 = 0.5011	x1 = 0.6022	x1 = 0.7006	x1 = 0.8028	x1 = 0.9028
293.15 K	2.641	2.499	2.364	2.215	2.07	1.91	1.75	1.577	1.402
298.15 K	–	–	–	–	–	–	–	1.412	1.26
303.15 K	2.161	2.027	1.907	1.779	1.661	1.531	1.402	1.268	1.134
308.15 K	1.969	1.843	1.732	1.614	1.505	1.385	1.267	1.144	1.024

CCCC(=O)OC + Clc1ccccc1
viscosity [mPa·s], 101.3 kPa
Conditions	308.15 K	318.15 K
x1 = 0.0851	0.648	0.601
x1 = 0.1025	0.647	0.6
x1 = 0.2257	0.63	0.588
x1 = 0.3019	0.621	0.58
x1 = 0.4004	0.607	0.567
x1 = 0.5036	0.593	0.552
x1 = 0.5911	0.58	0.54
x1 = 0.6834	0.564	0.527
x1 = 0.8223	0.541	0.504
x1 = 0.8997	0.525	0.489
x1 = 0.9522	0.515	0.479

CNC + CS(C)=O
303.15 K, 101 kPa
Conditions	viscosity [mPa·s]
x2 = 0.061	2.067
x2 = 0.1207	2.133
x2 = 0.2361	2.207
x2 = 0.4518	2.373
x2 = 0.6496	2.207
x2 = 0.8318	1.939

CCCCOC(=O)c1ccccc1 + CCCCCC
101 kPa
Conditions	viscosity [mPa·s]
298.15 K, x2 = 0.0788	2.272
298.15 K, x2 = 0.1269	2.042
298.15 K, x2 = 0.1801	1.81
298.15 K, x2 = 0.2539	1.536
298.15 K, x2 = 0.302	1.377
298.15 K, x2 = 0.3485	1.244
298.15 K, x2 = 0.4084	1.088
298.15 K, x2 = 0.4955	0.896
298.15 K, x2 = 0.5498	0.796
298.15 K, x2 = 0.6402	0.654
298.15 K, x2 = 0.6861	0.594
298.15 K, x2 = 0.7746	0.495
298.15 K, x2 = 0.8136	0.458
298.15 K, x2 = 0.8494	0.427
298.15 K, x2 = 0.8868	0.399
298.15 K, x2 = 0.9265	0.37
298.15 K, x2 = 0.961	0.348
308.15 K, x2 = 0.0668	1.923
308.15 K, x2 = 0.1277	1.7
308.15 K, x2 = 0.1875	1.5
308.15 K, x2 = 0.2458	1.331
308.15 K, x2 = 0.2926	1.211
308.15 K, x2 = 0.3554	1.063
308.15 K, x2 = 0.4013	0.966
308.15 K, x2 = 0.4549	0.863
308.15 K, x2 = 0.5013	0.785
308.15 K, x2 = 0.5515	0.707
308.15 K, x2 = 0.5967	0.644
308.15 K, x2 = 0.6407	0.59
308.15 K, x2 = 0.6896	0.536
308.15 K, x2 = 0.728	0.497
308.15 K, x2 = 0.7727	0.457
308.15 K, x2 = 0.8106	0.427
308.15 K, x2 = 0.8512	0.396
308.15 K, x2 = 0.8888	0.37
308.15 K, x2 = 0.9482	0.337
318.15 K, x2 = 0.0337	1.707
318.15 K, x2 = 0.1077	1.48
318.15 K, x2 = 0.1661	1.326
318.15 K, x2 = 0.231	1.166
318.15 K, x2 = 0.2845	1.05
318.15 K, x2 = 0.3438	0.934
318.15 K, x2 = 0.3951	0.846
318.15 K, x2 = 0.4512	0.757
318.15 K, x2 = 0.4998	0.691
318.15 K, x2 = 0.5513	0.624
318.15 K, x2 = 0.5518	0.625
318.15 K, x2 = 0.646	0.523
318.15 K, x2 = 0.6884	0.486
318.15 K, x2 = 0.7317	0.447
318.15 K, x2 = 0.7749	0.412
318.15 K, x2 = 0.8206	0.383
318.15 K, x2 = 0.8608	0.36
318.15 K, x2 = 0.9115	0.327
318.15 K, x2 = 0.9342	0.317
